Source: publication PMC11284088, “Synthesis and biochemical characterization of naphthoquinone derivatives targeting bacterial histidine kinases” (The Journal of Antibiotics, 2024)
“Also recorded” adds a separate entry of the source.

Experiments:
[1] = test system: HKs (EvgS, EnvZ, PhoQ, and CpxA); experiment: Inhibition of class I HKs, summary over several HKs; format: biochemical, Escherichia coli K12; set-up: key to HKs: HKs + inhibitory effect against HKs (EvgS, EnvZ, PhoQ, and CpxA); conditions: for inhibition of EvgS, EnvZ, PhoQ, and CpxA: in words; for HKs: summary class, EvgS, EnvZ, PhoQ, and CpxA
Description: (§1) Autophosphorylation of WalK was conducted at 0.5 or 1 µM in a reaction mixture comprising 50 mM Tris-HCl (pH 8.5), 100 mM KCl, 5 mM MgCl2, 100 mM NH4Cl, 5% DMSO, and 40 µM ATP. The total reaction volume was 40 µl, and the incubation lasted for 30 min at 25 °C. To terminate the reaction, 40 µl of 2 × SDS-PAGE sample buffer was added, followed by a 10-min incubation at 37 °C. Subsequently, SDS-PAGE (10% acrylamide) was performed, and the samples were subjected to Western blotting using a PVDF membrane (Bio-Rad 1620177). The primary antibody used was anti-N3-phosphohistidine antibody (clone SC56-2) (EDM Millipore Corp), and the secondary antibody was goat anti-rabbit IgG-HRP (Abcam). A 2% bovine serum albumin (Sigma-Aldrich) solution served as the blocking reagent. Signals originating from phosphorylated HKs were detected using the HRP substrate (Immobilon Western Chemiluminescent HRP substrate, Millipore) and the Multi Imager II Multi Box (Bio Tools). Signal intensities were quantified with Image Analysis Software CS Analyzer 4 (ATTO). IC50 values (50% inhibitory concentrations) were determined using Prism 7 software (GraphPad).
(§2) In the assessment of naphthoquinone derivatives, the initial screening for inhibitory activity against WalK autophosphorylation was conducted at 50 or 100 µg ml^−1. Compounds displaying inhibitory activity were further examined to ascertain their IC50 values against WalK. For the chosen compounds, inhibition against EvgS, EnvZ, PhoQ, and CpxA HKs was also assessed. These reactions involved the use of 1 µM HK, 40 µM ATP, and a 30 min incubation at 25 °C.

PhoQ = target: T1, PhoQ (Escherichia coli, UniProt P23837); experiment: Inhibition of PhoQ autophosphorylation; format: biochemical, Escherichia coli K12; conditions: PhoQ; 1 µM HK, 40 µM ATP, buffer pH 7.5; read-out: IC50
T1 construct: cytoplasmic regions of PhoQ (261-486) and CpxA (188-457); His6 (C); made in house; host or cells: E. coli BL21(DE3)
T1 sequence (P23837 261-486): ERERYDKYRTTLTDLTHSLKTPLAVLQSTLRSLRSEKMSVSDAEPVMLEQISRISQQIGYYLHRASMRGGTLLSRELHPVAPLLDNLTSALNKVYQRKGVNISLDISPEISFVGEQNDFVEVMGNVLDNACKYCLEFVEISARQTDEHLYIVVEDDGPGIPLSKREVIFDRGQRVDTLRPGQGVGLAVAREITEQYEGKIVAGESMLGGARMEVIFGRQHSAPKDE
Description: as §1, §2

EnvZ = target: T2, EnvZ (Escherichia coli, UniProt P0AEJ4); experiment: Inhibition of EnvZ autophosphorylation; format: biochemical, Escherichia coli K12; conditions: EnvZ; 1 µM HK, 40 µM ATP, 30 min at 25 °C; read-out: IC50
T2 construct: pETEcEnvZ(223-450); His6 (C); made in house; host or cells: E. coli BL21(DE3)
T2 sequence (P0AEJ4 223-450): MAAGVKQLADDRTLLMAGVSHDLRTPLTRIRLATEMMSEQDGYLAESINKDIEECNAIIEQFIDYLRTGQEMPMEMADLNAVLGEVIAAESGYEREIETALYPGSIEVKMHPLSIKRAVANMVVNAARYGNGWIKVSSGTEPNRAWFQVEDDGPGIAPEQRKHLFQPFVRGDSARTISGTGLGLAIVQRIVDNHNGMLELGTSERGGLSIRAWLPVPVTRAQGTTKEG
Description: as §1, §2

B. subtilis 168 strain = experiment: MIC, standard microtiter broth dilution; format: cell-based, Bacillus subtilis; set-up: key to MIC: MIC + antibacterial activity against Bacillus subtilis 168
Description: The minimum inhibitory concentrations (MICs) were determined using the standard microtiter broth dilution method, as recommended by the guidelines of the Clinical Laboratory Standards Institute.

iseA (formerly yoeB) = experiment: RT-qPCR of iseA expression in B. subtilis cells; format: cell-based, B. subtilis 168; set-up: key to RT-qPCR: RT-qPCR + iseA gene expression was induced in B. subtilis 168; − no effect; conditions: for expression of iseA: exponentially growing cells, subMIC or MIC levels, 5 min, relative to DMSO control; for RT-qPCR: summary class, iseA gene expression in B. subtilis 168
Description: In brief, the cells were aerated and grown to an optical density at 660 nm of 0.3–0.4 at 37 °C. After the addition of DMSO or naphthoquinone derivatives, the cultures were further incubated for 5 min, cooled on ice for 1 min, and then harvested by centrifugation (2300 × g, 10 min, 4 °C). The cells were resuspended in 800 µl of RNA Lysis Buffer (SV Total RNA Isolation System, Z3100, Promega), transferred to a screw-capped tube containing 400 mg of glass beads (GB-01, TOMY), and disrupted using MicroSmash (MS-100, TOMY Medico) at 3000 rpm, 60 s ON/OFF for 6 cycles. RNA was then purified from 175 µl of the supernatant using the SV Total RNA Isolation System, followed by DNase I treatment (Turbo DNA-free^TM Kit, AM1907, Invitrogen) to remove any residual genomic DNA contamination. […] The expression levels of the genes were normalized using the 16S rRNA gene as an internal standard. Each assay was performed at least three times. Statistical analyses were conducted using Tukey’s multiple comparison test (GraphPad Prism 7).

[2] = B. subtilis 168 strain grown in LB broth at 37 °C for 18 h
[3] = summary class, Bacillus subtilis 168

Compound	inhibition of EvgS, EnvZ, PhoQ, and CpxA [1]	HKs [1]	IC50 (PhoQ) [µM]	IC50 (EnvZ) [µM]	MIC (B. subtilis 168 strain; [2]) [µg/mL]	MIC (B. subtilis 168 strain; B. subtilis 168 strain grown in LB broth at 37 °C for 18 h, listed as C00015) [µg/mL]	MIC (B. subtilis 168 strain; [3])	expression of iseA (iseA (formerly yoeB))	RT-qPCR (iseA (formerly yoeB))	antibacterial (antimicrobial) activity against B. subtilis (B. subtilis 168 strain; in words)
O=C1C(Cl)=C(Nc2ccc(Cl)c(O)c2)C(=O)c2c(O)ccc(O)c21 [2h, 2-chloro-3-((4-chloro-3-hydroxyphenyl)amino)-5,8-dihydroxynaphthalene-1,4-dione]	inhibited all four of these HKs	+	42.3	47.2	8	8	+	significantly increased; also recorded: significantly induced iseA gene expression	+	
CC(C)(C)OC(=O)Nc1cccc(NC2=C(Cl)C(=O)c3c(O)ccc(O)c3C2=O)c1 [2l, tert-butyl (3-((3-chloro-5,8-dihydroxy-1,4-dioxo-1,4-dihydronaphthalen-2-yl)amino)phenyl)carbamate]	inhibited all four of these HKs	+	133	26.8	8		+	significantly increased; also recorded: significantly induced iseA gene expression	+	
Cc1noc2c1C(=O)c1c(O)ccc(O)c1C2=O [3b, 5,8-dihydroxy-3-methylnaphtho[2,3-d]isoxazole-4,9-dione]	inhibited all four of these HKs	+	96.3	77.3	0.5		+	significantly increased; also recorded: significantly induced iseA gene expression	+	equal to waldiomycin or even stronger
